Assay results as given in patent publication US6169181A, “Compounds useful to treat retroviral infections” (Pharmacia & Upjohn Company, priority 1998, dated 2001).
pKi: −log10 of the molar value. Several values for one entry are separate records, joined by “and”; a condition that tells them apart may be missing. Equal entries are not always repeated. Where two headings read alike, the source gives them in different places.

What was measured:
HIV-1 protease [1] = target: T1, HIV-1 protease (Human immunodeficiency virus type 1 group M subtype B, UniProt P04585); experiment: biochemical
Procedure, shortened: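 Biotinylated, FITC-labelled peptide substrate cleaved in 0.1 M sodium acetate pH 5.5, 1.0 M NaCl, 0.05% NP-40, room temperature. Filtered labelled product read by fluorescence; nonlinear least-squares fit.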

HIV-1 protease [2] = target: T1, HIV-1 protease; experiment: biochemical; details: for inhibition at 0.123 µM / inhibition at 0.37 µM / inhibition at 1.1 µM / inhibition at 3.3 µM / inhibition at 10 µM / inhibition at 30 µM: read-out: Protease % Inhib; for PROTEASE % INHIB.: Table II, enzyme HIV-1
Procedure, shortened: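 A substrate biotinylated at the N-terminal arginine and FITC-labelled at the C-terminal lysine was incubated with HIV-1 protease (10 μl of 0.1 μM) and compound for 1 h in the dark at room temperature. Buffer was 0.1 M sodium acetate pH 5.5, 1.0 M NaCl, 0.05% NP-40. Labelled product was separated from substrate using streptavidin beads and filtration, and the fluorescence gave percent inhibition.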

[3] = Table I, read-out: HIV Protease FITC Assay Ki
[4] = Table II, enzyme HIV-1, read-out: FITC KI

Compound | pKi (HIV-1 protease [1]; [3]) | inhibition at 0.123 µM (HIV-1 protease [2]; Table I, Dose 0.123 μM) | inhibition at 0.37 µM (HIV-1 protease [2]; Table I, Dose 0.370 μM) | inhibition at 1.1 µM (HIV-1 protease [2]; Table I, Dose 1.100 μM) | inhibition at 3.3 µM (HIV-1 protease [2]; Table I, Dose 3.300 μM) | inhibition at 10 µM (HIV-1 protease [2]; Table I, Dose 10.000 μM) | inhibition at 30 µM (HIV-1 protease [2]; Table I, Dose 30.000 μM) | further results
COCCOCCOCCOc1ccc2c(O)c(C(c3cccc(NS(=O)(=O)c4cn(C)cn4)c3)C3CC3)c(=O)oc2c1 (centres unmarked) [Example 151, N-(3-{Cyclopropyl-[7-(2-(2-(2-methoxyethoxy)-ethoxy)ethoxy)-4-hydroxycoumarin-3-yl]-methyl}-phenyl)-1-methyl-1H-imidazole-4-sulfonamide] | – | – | – | – | – | – | – | pKi (HIV-1 protease [1]; HIV Protease FITC Assay Ki): 9.44; inhibition at 0.123 µM (HIV-1 protease [2]): 111%; inhibition at 0.37 µM (HIV-1 protease [2]): 115%; inhibition at 1.1 µM (HIV-1 protease [2]): 118%; inhibition at 3.3 µM (HIV-1 protease [2]): 119%; inhibition at 10 µM (HIV-1 protease [2]): 116%; inhibition at 30 µM (HIV-1 protease [2]): 115%
COc1ccc2c(O)c(C(c3cccc(NS(=O)(=O)c4cn(C)cn4)c3)C3CC3)c(=O)oc2c1 (centres unmarked) [Example 152, N-(3-{Cyclopropyl-[7-methoxy-4-hydroxycoumarin-3-yl]-methyl}-phenyl)-1-methyl-1H-imidazole-4-sulfonamide] | – | – | – | – | – | – | – | pKi (HIV-1 protease [1]; HIV Protease FITC Assay Ki): 9.15; inhibition at 0.123 µM (HIV-1 protease [2]): 11.5%; inhibition at 0.37 µM (HIV-1 protease [2]): 80.2%; inhibition at 1.1 µM (HIV-1 protease [2]): 95.8%; inhibition at 3.3 µM (HIV-1 protease [2]): 94.4%; inhibition at 10 µM (HIV-1 protease [2]): 95.5%; inhibition at 30 µM (HIV-1 protease [2]): 96.5%
COCCOCCOCCOc1ccc2c(O)c(C(c3cccc(NS(=O)(=O)c4cccc5cccnc45)c3)C3CC3)c(=O)oc2c1 (centres unmarked) [Example 153, N-(3-{Cyclopropyl-[7-(2-(2-(2-methoxyethoxy)-ethoxy)ethoxy)-4-hydroxycoumarin-3-yl]-methyl}-phenyl)-8-quinolinesulfonamide] | 8.73 | 81.3% | 91.1% | 100% | 104% | 103% | 101% | –
COCCOCCOCCOc1ccc2c(O)c(C(c3cccc(NS(=O)(=O)c4ccccn4)c3)C3CC3)c(=O)oc2c1 (centres unmarked) [Example 154, N-(3-{Cyclopropyl-[7-(2-(2-(2-methoxyethoxy)-ethoxy)ethoxy)-4-hydroxycoumarin-3-yl]-methyl}-phenyl)-2-pyridinesulfonamide] | – | – | – | – | – | – | – | pKi (HIV-1 protease [1]; HIV Protease FITC Assay Ki): 9.66; inhibition at 0.123 µM (HIV-1 protease [2]): 99.8%; inhibition at 0.37 µM (HIV-1 protease [2]): 98.2%; inhibition at 1.1 µM (HIV-1 protease [2]): 99.5%; inhibition at 3.3 µM (HIV-1 protease [2]): 97.6%; inhibition at 10 µM (HIV-1 protease [2]): 104%; inhibition at 30 µM (HIV-1 protease [2]): 99.2%
CN(c1cccc(C(c2c(O)c3c(oc2=O)CCCCCC3)C2CC2)c1)S(=O)(=O)c1ccc(C#N)cc1 (centres unmarked) [Example 192, 4-Cyano-N-methyl-N-[3-[cyclopropyl(5,6,7,8,9,10-hexahydro-4-hydroxy-2-oxo-2H-cycloocta[b]pyran-3-yl)methyl]phenyl]-benzenesulfonamide] | 8.14 | 44% | 76.3% | 94% | 96.9% | 103% | 94.4% | –
CN(c1cccc(C(c2c(O)c3c(oc2=O)CCCCCC3)C2CC2)c1)S(=O)(=O)c1ccc(F)cc1 (centres unmarked) [Example 193, 4-Fluoro-N-methyl-N-[3-[cyclopropyl(5,6,7,8,9,10-hexahydro-4-hydroxy-2-oxo-2H-cycloocta[b]pyran-3-yl)methyl]phenyl]-benzenesulfonamide] | 7.46 | 18.4% | 40.3% | 77.7% | 98.1% | 108% | 103% | –
CN(c1cccc(C(c2c(O)c3c(oc2=O)CCCCCC3)C2CC2)c1)S(=O)(=O)c1cn(C)cn1 (centres unmarked) [Example 195, N-methyl-N-[3-[cyclopropyl(5,6,7,8,9,10-hexahydro-4-hydroxy-2-oxo-2H-cycloocta[b]pyran-3-yl)methyl]phenyl]-1H-Imidazole-1-methyl-sulfonamide] | 8.43 | 60.9% | 85.1% | 90.8% | 90.8% | 93.1% | 92.7% | –
O=c1oc2c(c(O)c1C(c1cccc(NS(=O)(=O)c3ccccn3)c1)C1CC1)CCCCCC2 (centres unmarked) [Example 239] | 8.84 and 9.07 | 83.6% | 96.6% | 98.4% | 99.5% | 103% | 108% | –
CCCC1(CCc2ccccc2)CC(O)=C(C(c2cccc(NS(=O)(=O)c3ccc(C#N)cn3)c2)C(C)(C)C)C(=O)O1 (centres unmarked) [Example 251, 5-Cyano-N-[3-(1-[5,6-dihydro-4-hydoxy-2-oxo-6-(2-phenethyl)-6-propyl-2H-pyran-3-yl]-2,2-dimethylpropyl)phenyl]-2-pyridinesulfonamide] | – | – | – | – | – | – | – | pKi (HIV-1 protease [1]; read-out: HIV Protease FITC Assay Ki): 8.72; inhibition at 0.123 µM (HIV-1 protease [2]): 70.8%; inhibition at 0.37 µM (HIV-1 protease [2]): 90.6%; inhibition at 1.1 µM (HIV-1 protease [2]): 97.7%; inhibition at 3.3 µM (HIV-1 protease [2]): 94.5%; inhibition at 10 µM (HIV-1 protease [2]): 94.2%; inhibition at 30 µM (HIV-1 protease [2]): 93.2%
CCCC1(CCc2ccc(F)cc2)CC(O)=C(C(c2cccc(NS(=O)(=O)c3cn(C)cn3)c2)C(C)(C)C)C(=O)O1 (centres unmarked) [Example 252, N-[3-{1-(4-Hydroxy-5,6-dihydro-2-oxo-6-(2-(4-fluorophenyl)ethyl)-6-propyl-2H-pyran-3-yl)-2,2-dimethylpropyl}phenyl]-1-methyl-1H-imidazole-4-sulfonamide] | 8.80 | 70% | 85% | 89.7% | 101% | 96.2% | 91.4% | –
Cn1cnc(S(=O)(=O)Nc2cccc(C(C3=C(O)CC(CCC4CC4)(CCC4CC4)OC3=O)C(C)(C)C)c2)c1 (centres unmarked) [Example 264, N-[3-(1-[6,6-Bis-(2-cyclopropyl-ethyl)-5,6-dihydro-4-hydroxy-2-oxo-2H-pyran-3-yl]-2,2-dimethyl-propyl)phenyl]-1-methyl-1H-imidazole-4-sulfonamide] | 8.43 | 67.2% | 75% | 67.7% | 57.6% | 53.7% | 64.6% | –
CC(C)(C)C(C1=C(O)CC(CCC2CC2)(CCC2CC2)OC1=O)c1cccc(NS(=O)(=O)c2ccc(C#N)cn2)c1 (centres unmarked) [Example 265, N-[3-(1-[6,6-Bis-(2-cyclopropyl-ethyl)-5,6-dihydro-4-hydroxy-2-oxo-2H-pyran-3-yl]-2,2-dimethyl-propyl)phenyl]-5-cyano-2-pyridinesulfonamide] | 9.00 | 33.2% | 56.3% | 57.8% | 63.7% | 80.3% | 85.6% | –
CCCC1(CCc2ccccc2)CC(O)=C(C(c2cccc(NS(=O)(=O)c3ccc(C(F)(F)F)cn3)c2)C(C)(C)C)C(=O)O1 (centres unmarked) [Example 293, 5-Trifluoromethyl-N-[3-[1-[5,6-dihydro-4-hydroxy-2-oxo-6-(2-phenethyl)-6-n-propyl-2H-pyran-3-yl]-2,2-dimethylpropyl]-phenyl]-2-pyridinesulfonamide] | – | – | – | – | – | – | – | pKi (HIV-1 protease [1]; [4]): 8.37; PROTEASE % INHIB. (HIV-1 protease [2]; DOSE 0.123 (unit not given)): 53.45%; PROTEASE % INHIB. (HIV-1 protease [2]; DOSE 0.370 (unit not given)): 77.51%; PROTEASE % INHIB. (HIV-1 protease [2]; DOSE 1.100 (unit not given)): 94.18%; PROTEASE % INHIB. (HIV-1 protease [2]; DOSE 3.300 (unit not given)): 103.03%; PROTEASE % INHIB. (HIV-1 protease [2]; DOSE 10.000 (unit not given)): 97.41%; PROTEASE % INHIB. (HIV-1 protease [2]; DOSE 30.000 (unit not given)): 92.01%
CCCC1(CCc2ccc(F)cc2)CC(O)=C(C(c2cccc(NS(=O)(=O)c3ccc(C#N)cc3)c2)C(C)(C)C)C(=O)O1 (centres unmarked) [Example 328, N-[3-{1-(4-Hydroxy-5,6-dihydro-2-oxo-6-(2-(4-fluorophenyl)ethyl)-6-propyl-2H-pyran-3-yl)-2,2-dimethylpropyl}phenyl]-4-cyanobenzenesulfonamide] | – | – | – | – | – | – | – | pKi (HIV-1 protease [1]; [4]): 7.66; PROTEASE % INHIB. (HIV-1 protease [2]; DOSE 0.123 (unit not given)): 27.81%; PROTEASE % INHIB. (HIV-1 protease [2]; DOSE 0.370 (unit not given)): 79.47%; PROTEASE % INHIB. (HIV-1 protease [2]; DOSE 1.100 (unit not given)): 95.45%; PROTEASE % INHIB. (HIV-1 protease [2]; DOSE 3.300 (unit not given)): 96.77%; PROTEASE % INHIB. (HIV-1 protease [2]; DOSE 10.000 (unit not given)): 96.78%; PROTEASE % INHIB. (HIV-1 protease [2]; DOSE 30.000 (unit not given)): 92.17%
